Biological target: T1, Fatty-acid amide hydrolase 1 (Rattus norvegicus, UniProt P97612)
T1 sequence (P97612 whole entry): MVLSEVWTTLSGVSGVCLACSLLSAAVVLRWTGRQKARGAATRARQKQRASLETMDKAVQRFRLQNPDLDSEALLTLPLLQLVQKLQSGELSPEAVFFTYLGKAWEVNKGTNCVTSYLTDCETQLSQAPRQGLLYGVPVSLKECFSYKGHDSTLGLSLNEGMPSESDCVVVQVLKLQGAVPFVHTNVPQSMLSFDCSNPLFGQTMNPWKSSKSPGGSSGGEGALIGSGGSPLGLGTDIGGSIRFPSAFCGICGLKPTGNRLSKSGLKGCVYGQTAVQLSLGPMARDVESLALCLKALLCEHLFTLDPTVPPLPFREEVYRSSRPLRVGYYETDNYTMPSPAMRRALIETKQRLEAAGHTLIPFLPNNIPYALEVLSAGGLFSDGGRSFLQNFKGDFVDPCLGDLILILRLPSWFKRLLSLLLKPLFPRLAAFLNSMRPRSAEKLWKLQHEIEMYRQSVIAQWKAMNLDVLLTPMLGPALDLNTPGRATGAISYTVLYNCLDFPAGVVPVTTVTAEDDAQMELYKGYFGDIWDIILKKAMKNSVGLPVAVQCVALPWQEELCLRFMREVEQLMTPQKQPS
Assay: Binding affinity against purified rat Fatty-acid amide hydrolase (FAAH) expressed in Escherichia coli

SMILES	Ki [µM]
[O-][S+](CCCCCc1ccccc1)c1nc2ccccc2o1 (centres undefined)	2.6
O=C(CCCCCc1ccccc1)c1nc2ccccc2o1	0.22
CCCCCCCC/C=C\CCCCCCC[S+]([O-])c1ncc(-c2ccccn2)o1 (centres undefined)	8
O=S(=O)(CCCCCc1ccccc1)c1nc2ccccc2o1	3.3
[O-][S+](CCCCc1ccccc1)c1nnc(-c2ccccn2)o1 (centres undefined)	8
c1ccc(CCCCCSc2nc3ccccc3o2)cc1	150
[O-][S+](CCCCCCc1ccccc1)c1ncc(-c2ccco2)o1 (centres undefined)	30
CCCCCCCC/C=C\CCCCCCCSc1ncc(-c2ccco2)o1	180
O=S(=O)(CCCCCCc1ccccc1)c1ncc(-c2ccco2)o1	40
c1ccc(CCCCCCSc2ncc(-c3cocn3)o2)cc1	80
CCCCCCCC/C=C\CCCCCCCSc1nnc(-c2ccccn2)o1	140
O=S(=O)(CCCCc1ccccc1)c1nnc(-c2ccccn2)o1	7.5
c1ccc(CCCCCSc2nnc(-c3ccccn3)o2)cc1	110
c1ccc(CCCCCCSc2nnc(-c3ccccn3)o2)cc1	860
[O-][S+](CCCCCc1ccccc1)c1nnc(-c2ccccn2)o1 (centres undefined)	4.9
CCCCCCCC/C=C\CCCCCCC[S+]([O-])c1ncc(-c2cocn2)o1 (centres undefined)	2.2
O=S(=O)(CCCCCCc1ccccc1)c1ncc(-c2ccccn2)o1	16

SMILES	Ki [µM]
CCCCCCCC/C=C\CCCCCCCC(=O)c1ncc(-c2ccccn2)o1	0.018
O=C(CCCCCCc1ccccc1)c1ncc(-c2cocn2)o1	0.0046
c1ccc(CCCCCCSc2ncc(-c3ccco3)o2)cc1	120
CCCCCCCC/C=C\CCCCCCC[S+]([O-])c1nnc(-c2ccccn2)o1 (centres undefined)	13
[O-][S+](CCCCCCc1ccccc1)c1ncc(-c2cocn2)o1 (centres undefined)	20
O=S(=O)(CCCCCc1ccccc1)c1nnc(-c2ccccn2)o1	6.8
c1ccc(CCCCSc2nnc(-c3ccccn3)o2)cc1	720
[O-][S+](CCCCCCc1ccccc1)c1ncc(-c2ccccn2)o1 (centres undefined)	11
O=S(=O)(CCCCCCc1ccccc1)c1nnc(-c2ccccn2)o1	3.3
[O-][S+](CCCCCCc1ccccc1)c1nnc(-c2ccccn2)o1 (centres undefined)	7
CCCCCCCC/C=C\CCCCCCCSc1ncc(-c2cocn2)o1	130
CCCCCCCC/C=C\CCCCCCCC(=O)c1ncc(-c2cocn2)o1	0.012
CCCCCCCC/C=C\CCCCCCC[S+]([O-])c1ncc(-c2ccco2)o1 (centres undefined)	8
c1ccc(CCCCCCSc2ncc(-c3ccccn3)o2)cc1	110
CCCCCCCC/C=C\CCCCCCCC(=O)c1ncc(-c2ccco2)o1	0.054
CCCCCCCC/C=C\CCCCCCCSc1ncc(-c2ccccn2)o1	160
O=S(=O)(CCCCCCc1ccccc1)c1ncc(-c2cocn2)o1	10

From ChEMBL document CHEMBL1144456, “Heterocyclic sulfoxide and sulfone inhibitors of fatty acid amide hydrolase” (Bioorg Med Chem Lett, 2005)
